Measurements taken from patent publication US20230219978A1, “COMPOUND HAVING MACROCYCLIC STRUCTURE AND USE THEREOF” (SCINNOHUB PHARMACEUTICAL CO., LTD, priority 2020, published 2023).

Columns and labels:
Type in all cases: biochemical
RET V804M = target: T1, RET V804M (Homo sapiens, UniProt P07949, V804M); test: In vitro kinase activity assay (mobility shift assay), RET V804M; details: ATP 5.4 μM, reaction time 60 min
T1 construct: purchased signalchem R02-12GG
Procedure: (§1) The IC50 (half inhibitory concentration) values of the compounds were used as an indicator to evaluate the inhibitory effect of the compound on RET wild-type, RET mutant, TRKa, SRC, BTK and/or mutated BTK kinase.
(§2) Using the method of Mobility shift assay, the compounds were tested for inhibitory activity against the following kinases: RET wild type, RET mutant, TRKa, SRC, BTK and/or mutated BTK. The initial concentration of the test compound was 1000 nM, 3-fold dilution, 10 concentrations, detected in a well for each concentration.
(§3) 20 mM hydroxyethylpiperazineethanesulfonic acid (Hepes) (pH 7.5) buffer, 10 mM MgCl2, 1 mM ethylene glycol bis(aminoethyl ether)tetraacetic acid (EGTA), 0.02% polyoxyethylene lauryl ether (Brij35), 0.02 mg/ml […] (BSA), 0.1 mM Na3VO4, 2 mM dithiothreitol (DTT), 1% DMSO.
(§4) The test compounds were dissolved in 100% dimethyl sulfoxide (DMSO) system, and prepared as 10 mM for use, and stored in a nitrogen cabinet away from light.
(§5) • (1) Preparing 1× kinase reaction buffer. • (2) Preparation of compound concentration gradient: the initial concentration of the compounds was 1000 nM, which was diluted as 100-fold final concentration of solution in 100% dimethyl sulfoxide (DMSO) in a 384-well plate. The compound was accurately 3-fold diluted with the kinase buffer solution, 10 concentrations in total, and the final concentration was 0.0508 nM. The 100-fold final concentration of solution in 100% dimethyl sulfoxide (DMSO) was obtained by dilution in 384 source plate. The liquid separator Echo 550 was used to transfer 250 nl of 100-fold final concentration of compound to the target 384 well plate. 250 nl of DMSO was added to the positive and negative control wells. • (3) 2.5-fold final concentration of kinase solution was prepared by the 1× kinase buffer. • (4) 10 4, of 2.5-fold final concentration of kinase solution was added to the compound well and the positive control well, respectively; 10 4, of 1× kinase buffer was added to the negative control well. • (5) After centrifuging at 1000 rpm for 30 second, the reaction plate was shaken and mixed, followed by incubation at room temperature for 10 min. • (6) a mixed solution of 25/15-fold final concentration of adenosine triphosphate (ATP) and kinase substrate was prepared by 1× kinase buffer. • (7) The mixed solution (15 μL) of 25/15-fold final concentration of adenosine triphosphate (ATP) and substrate was added to initiate the reaction. • (8) 384-well plate was centrifuged at 1000 rpm for 30 second, shaken and mixed well, and then incubated at room temperature for 30-240 min. • (9) After stopping the kinase reaction, the plate was centrifugated at 1000 rpm for 30 second, shaken and mixed well. • (10)The conversion rate was read with Caliper EZ Reader.
(§6) wherein Conversion%_sample is the conversion rate reading of the sample; Conversion%_min: the mean value of negative control wells, representing the conversion rate reading of wells without enzymes; Conversion%_max: the mean value of positive control wells, representing the conversion rate reading of wells without compound inhibition.
(§7) The log value of concentration was taken as the X axis, and the percentage inhibition rate was taken as the Y axis. Graphpad 6.0 analysis software was used to fit the dose-response curve, so as to obtain the IC50 value of each compound on the enzyme activity

RET wt = target: T2, RET wt (Homo sapiens, UniProt P07949); test: In vitro kinase activity assay (mobility shift assay), RET wild type; details: ATP 16 μM, reaction time 60 min
T2 construct: purchased Carna 08-159
Procedure: as §1, §2, §3, §4, §5, §6, §7

RET G810R = target: T3, RET G810R (Homo sapiens, UniProt P07949, G810R); test: In vitro kinase activity assay (mobility shift assay), RET G810R; details: ATP 201 μM, reaction time 4 h
T3 construct: purchased Proqinase 1724-0000-1
Procedure: as §1, §2, §3, §4, §5, §6, §7

T3 sequence (P07949 29-1114 G810R): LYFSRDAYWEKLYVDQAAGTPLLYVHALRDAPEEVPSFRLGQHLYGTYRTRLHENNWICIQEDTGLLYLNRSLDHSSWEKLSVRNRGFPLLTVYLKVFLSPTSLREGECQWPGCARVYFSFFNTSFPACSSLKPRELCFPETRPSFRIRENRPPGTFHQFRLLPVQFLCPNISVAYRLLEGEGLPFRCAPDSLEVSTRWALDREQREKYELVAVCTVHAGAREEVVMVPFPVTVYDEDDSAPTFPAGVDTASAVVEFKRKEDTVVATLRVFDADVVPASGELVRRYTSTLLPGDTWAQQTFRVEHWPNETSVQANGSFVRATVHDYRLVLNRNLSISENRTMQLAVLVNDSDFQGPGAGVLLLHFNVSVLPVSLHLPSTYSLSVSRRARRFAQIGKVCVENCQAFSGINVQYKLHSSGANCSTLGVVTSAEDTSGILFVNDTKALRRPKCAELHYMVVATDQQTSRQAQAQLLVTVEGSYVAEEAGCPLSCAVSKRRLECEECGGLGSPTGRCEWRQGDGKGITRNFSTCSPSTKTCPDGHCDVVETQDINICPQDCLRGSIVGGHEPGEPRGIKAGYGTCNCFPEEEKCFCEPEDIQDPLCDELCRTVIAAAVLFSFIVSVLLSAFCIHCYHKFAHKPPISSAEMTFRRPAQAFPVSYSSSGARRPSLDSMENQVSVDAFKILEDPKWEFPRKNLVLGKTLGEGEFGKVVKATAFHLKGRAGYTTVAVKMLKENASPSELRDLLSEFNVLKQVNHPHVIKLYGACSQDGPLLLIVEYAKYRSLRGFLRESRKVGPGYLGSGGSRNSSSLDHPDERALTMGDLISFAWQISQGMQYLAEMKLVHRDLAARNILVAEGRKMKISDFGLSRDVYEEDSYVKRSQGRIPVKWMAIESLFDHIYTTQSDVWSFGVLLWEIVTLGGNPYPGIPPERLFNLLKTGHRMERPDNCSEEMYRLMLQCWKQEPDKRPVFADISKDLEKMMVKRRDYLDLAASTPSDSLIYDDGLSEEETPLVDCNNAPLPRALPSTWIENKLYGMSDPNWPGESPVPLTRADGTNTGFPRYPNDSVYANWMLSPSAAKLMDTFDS
T1 sequence (P07949 29-1114 V804M): as the sequence (P07949 29-1114 G810R) above, with V776M, R782G counted along it
T2 sequence (P07949 29-1114): as the sequence (P07949 29-1114 G810R) above, with R782G counted along it

Row | Compound | IC50 (RET V804M) | IC50 (RET wt) | IC50 (RET G810R)
1 | CCOC(=O)Nc1ccc(-c2c3nc4c(cnn4c2N)C(=O)NC[C@H](C)Oc2ncc(F)cc2CN3)c(F)c1 [Example 71, ethyl (4-((S, 1^3E, 1^4E)-1^7-amino-4^5-fluoro-6-methyl-9-oxo-5-oxo-2,8-diaza-1(5,3)-pyrazolo[1,5-a]pyrimidin-4(3,2)-pyridinacyclononaphan-1^6-yl)-3-fluorophenyl)carbamate] | 1.6 nM | 1.2 nM | 23 nM
2 | C[C@H]1CNC(=O)c2cnn3cc(-c4ccccc4)c(nc23)NCc2cc(Cl)cnc2O1 [Compound 47, (S, 1^3E, 1^4E)-4^5-chloro-6-methyl-1^6-phenyl-5-oxa-2,8-diaza-1(5,3)-pyrazolo[1,5-a]pyrimidina-4(3,2)-pyridinacyclononaphan-9-one] | > 1000 nM | 26 nM | > 1000 nM
3 | CC(C)Nc1ccc(-c2c3nc4c(cnn4c2N)C(=O)NC[C@H](C)Oc2ncc(F)cc2CN3)cc1 [Example 57, (S, 1^3E, 1^4E)-1^7-amino-4^5-fluoro-1^6-(4-(isopropylamino)phenyl)-6-methyl-5-oxo-2,8-diaza-1(5,3)-pyrazolo[1,5-a]pyrimidin-4(3,2)-pyridinacyclononaphan-9-one] |  | 47 nM | > 1000 nM
4 | CCCOC(=O)Nc1ccc(-c2c3nc4c(cnn4c2N)C(=O)NC[C@H](C)Oc2ncc(F)cc2CN3)cc1 [Example 67, propyl (4-((S, 1^3E, 1^4E)-1^7-amino-4^5-fluoro-6-methyl-9-oxo-5-oxa-2,8-diaza-1(5,3)-pyrazolino [1,5-a]pyrimidin-4(3,2)-pyridinacyclononaphan-1^6-yl)-phenyl)carbamate] | 3.58 nM | 1.19 nM | 35.7 nM
5 | CCNC(=O)Cc1ccc(-c2c3nc4c(cnn4c2N)C(=O)NC[C@H](C)Oc2ncc(F)cc2CN3)cc1 [Example 83, 2-(4-((S, 1^3E, 1^4E)-1^7-4^5-fluoro-6-methyl-9-oxo-5-oxa-2,8-diaza-1(5,3)-pyrazolo[1,5-a]pyrimidin-4(3,2)-pyridinacyclononaphan-1^6-yl)phenyl)-N-ethylacetamide] | 281 nM | 49 nM | > 1000 nM
6 | CCOC(=O)Nc1c(F)cc(-c2c3nc4c(cnn4c2N)C(=O)NC[C@H](C)Oc2ncc(F)cc2CN3)cc1F [Example 70, (S, 1^3E, 1^4E)-1^7-amino-4^5-fluoro-6-methyl-1^6-(6^2′^6-difluoro-6^1-(ethoxycarbonyl)amino-4-yl)phenyl-5-oxa-2,8-diaza-1(5,3)-pyrazolo[1,5-a]pyrimidinyl-4(3,2)-pyridinacyclononaphan-9-one] | 551 nM | 15 nM | > 1000 nM
7 | CCOC(=O)Nc1ccc(-c2c3nc4c(cnn4c2N)C(=O)NC[C@H](C)Oc2ncc(F)cc2CN3)cc1 [Example 62, ethyl (4-((S, 1^3E, 1^4E)-1^7-amino-4^5-fluoro-6-methyl-9-oxo-5-oxa-2,8-diaza-1(5,3)-pyrazolino [1,5-a]pyrimidin-4(3,2)-pyridinacyclononaphan-1^6-yl)-phenyl)carbamate] | 0.94 nM | 0.26 nM | 15 nM
8 | CCN(C)C(=O)Nc1ccc(-c2c3nc4c(cnn4c2N)C(=O)NC[C@H](C)Oc2ncc(F)cc2CN3)cc1 [Example 81, 3-(4-((S, 1^3E,VE)-1^7-amino-4^5-fluoro-6-methyl-9-oxo-5-oxa-2,8-diaza-1(5,3)-pyrazolo[1,5-a]pyrimidin-4(3,2)-pyridinacyclononaphan-1^6-yl)-phenyl)-1-ethyl-1-methylure a] | 384 nM | 89 nM | > 1000 nM
9 | C[C@H]1CNC(=O)c2cnn3cc(-c4cn[nH]c4)c(nc23)NCc2cc(F)cnc2O1 [Compound 37, (S, 1^3E, 1^4E)-4^5-fluoro-6-methyl-1^6-(1H-pyrazol-4-yl)-5-oxa-2,8-diaza-1(5,3)-pyrazolo[1,5-a]pyrimidin-4(3,2)-pyridinacyclononaphan-9-one] |  | 95 nM | > 1000 nM
10 | CC(C)OC(=O)Nc1ccc(-c2c3nc4c(cnn4c2N)C(=O)NC[C@H](C)Oc2ncc(F)cc2CN3)cc1 [Example 61, iso-propyl (4-((S, 1^3E, 1^4E)-1^7-amino-4^5-fluoro-6-methyl-9-oxo-5-oxa-2,8-diaza-1(5,3)-pyrazolino[1,5-a]pyrimidin-4(3,2)-pyridinacyclononaphan-1^6-yl)-phenyl)carbamate] |  | 1 nM | 21.8 nM
11 | C[C@H]1CNC(=O)c2cnn3c(N)c(-c4ccc5nc[nH]c5c4)c(nc23)NCc2cc(F)cnc2O1 [Compound 52, (S, 1^3E, 1^4E)-1^7-amino-1 ^6-(1H-benzo [d]imidazol-6-yl)-4^5-fluoro-6-methyl-5-oxo-2,8-diaza-1(5,3)-pyrazolo[1,5-a]pyrimidin-4(3,2)-pyridinacyclononaphan-9-one] |  | 5.4 nM | 588 nM
12 | C[C@H]1CNC(=O)c2cnn3cc(-c4ccc5[nH]ccc5c4Cl)c(nc23)NCc2cc(F)cnc2O1 [Compound 34, (S, 1^3E, 1^4E)-1^6-(4-chloro-1H-indo1-5-yl)-4^5-fluoro-6-methyl-5-oxo-2,8-diaza-1(5,3)-pyrazolo[1,5-a]pyrimidin-4(3,2)-pyridinacyclononaphan-9-one] |  | 5.4 nM | 377 nM
13 | C[C@H]1CNC(=O)c2cnn3cc(-c4ccc(NC(=O)OCC5CC5)cc4Cl)c(nc23)NCc2cc(F)cnc2O1 [Compound 46, cyclopropylmethyl (3-chloro-4-((S, 1^3E, 1^4E)-4^5-fluoro-6-methyl-9-oxo-5-oxadiaza-2,8-1(5,3)-pyrazolo[1,5-a]pyrimidin-4(3,2)-pyridinacyclononaphan-1^6-yl)phenyl)carbamate] |  | 5.1 nM | 96.9 nM
14 | CNc1ccc(-c2cn3ncc4c3nc2NCc2cc(F)cnc2O[C@@H](C)CNC4=O)c(Cl)c1 [Compound 39, (S, 1^3E, 1^4E)-1^6-(4-methylamino-2-chlorophenyl)-4^5-fluoro-6-methyl-5-oxa-2,8-diaza-1(5,3)-pyrazolo[1,5-a]pyrimidina-4(3,2)-pyridinacyclononaphan-9-one] |  | 3 nM | 376 nM
15 | C[C@H]1CNC(=O)c2cnn3c(N)c(-c4ccc(N(C)C)cc4)c(nc23)NCc2cc(F)cnc2O1 [Example 58, (S, 1^3E, 1^4E)-1^7-amino-1^6-(4-(dimethylamino)phenyl)-4^5-fluoro-6-methyl-5-oxo-2,8-diaza-1(5,3)-pyrazolo[1,5-a]pyrimidin-4(3,2)-pyridinacyclononaphan-9-one] |  | 3.4 nM | 155 nM
16 | C[C@H]1CNC(=O)c2cnn3cc(-c4ccc(N)cc4)c(nc23)NCc2cc(F)cnc2O1 [Compound 36, (S, 1^3E, 1^4E)-1^6-(4-aminophenyl)-4^5-fluoro-6-methyl-5-oxo-2,8-diaza-1(5,3)-pyrazolo[1,5-a]pyrimidin-4(3,2)-pyridinacyclononaphan-9-one] |  | 27 nM | > 1000 nM
17 | CNC(=O)Nc1ccc(-c2c3nc4c(cnn4c2N)C(=O)NC[C@H](C)Oc2ncc(F)cc2CN3)cc1 [Example 55, 1-(4-((S, 1^3E, 1^4E)-1^7-amino-4^5-fluoro-6-methyl-9-oxo-5-oxo-2,8-diaza-1(5,3)-pyrazolo[1,5-a]pyrimidin-4(3,2)-pyridinacyclononaphan-1^6-yl)phenyl)-3-methylurea] |  | 1.1 nM | 84.3 nM
18 | CNC(=O)Nc1ccc(-c2cn3ncc4c3nc2NCc2cc(F)cnc2O[C@@H](C)CNC4=O)c(Cl)c1 [Compound 35, 1-(3-chloro-4-((S, 1^3E, 1^4E)-4^5-fluoro-6-methyl-9-oxo-5-oxo-2,8-diaza-1(5,3)-pyrazolo[1,5-a]pyrimidin-4(3,2)-pyridinacyclononaphan-1^6-yl)phenyl)-3-methylurea] |  | 1.9 nM | 197 nM
19 | C[C@H]1CNC(=O)c2cnn3cc(-c4ccc(NS(C)(=O)=O)cc4Cl)c(nc23)NCc2cc(F)cnc2O1 [Compound 44] |  | 286 nM | > 1000 nM
